The subject of experiment [1] is TLR9. Put plainly: TLR9-induced IL-6 in murine splenocytes (CpG1826, ELISA). To be noted: Mus musculus, Splenocyte; read-out: TLR9-ligand induced IL-6 in murine splenocytes IC50. The experiment is classed as cell-based, C57BL/6 mice. The protocol: 2.2 Determination of TLR9-Induced IL-6 in Murine Splenocytes
Spleens were dissected from C57BL/6 mice immediately following euthanasia. Excess fat was trimmed from the spleens prior to mashing the spleen through a […] cell strainer using a plunger from a 5 ml syringe. A single cell suspension was prepared and the volume was adjusted to 15 ml in a 50 ml Falcon tube using cold PBS. Cells were centrifuged at 1500 rpm for 5 minutes at 4° C. degrees prior to removal of supernatant and re-suspension in 5 ml of red blood cell lysis buffer per spleen and incubation for 5 minutes at room temperature. Ice cold PBS (30 ml) was added to the cells prior to centrifugation at 1500 rpm for 5 minutes at 4° C. The supernatant was removed and the cells were washed twice with 40 ml of murine splenocyte culture media (MSCM). […] Cells were re-suspended in 10-20 ml of MSCM and counted using a Countess cell counter. […]
After overnight culture, cells were transferred to 96-well V-bottomed plates and centrifuged at 2000 rpm for 5 minutes at room temperature. Subsequently 150 μl of each culture supernatant was transferred to 96-well flat-bottomed plates and […] were measured using commercially available mouse IL-6 sandwich ELISA kit (R&D systems). […] IL-6 levels were measured using a SpectraMax 190 Plate Reader (450 nm) and analyzed using SoftMax Pro and GraphPad Prism software.
On the technique in general: An ELISA detects its analyte on a solid surface through an enzyme-linked reagent.

The subject of experiment [2] is TLR9. Put plainly: TLR9-induced IFNalpha in isolated human pDCs (CpG2216, AlphaLISA). The following applies: read-out: TLR9-ligand induced IFNα in human pDCs IC50. The experiment is classed as cell-based. How it is done: 2.4 Determination of TLR9-Induced IFNalpha in Human Peripheral Blood Mononuclear Cells (PBMCs) and Isolated Plasmacytoid Dendritic Cells (pDCs)
Human PBMCs were prepared using Buffy Coats as source material from healthy donations (approx. 50 ml obtained from Blutspendezentrum SRK Basel) and processed as indicated above. […]
Compounds were pre-diluted in 100% v/v DMSO (#41640-100 mL; Sigma-Aldrich), followed by transfer in Media (to achieve a final DMSO concentration of 0.25%). […] Plates were briefly centrifuged (200×g for 2 min at 22° C.) and supernatant samples (30 μl) removed for quantification of IFNα levels.
For quantification of IFNalpha the human interferon AlphaLISA Kit (#AL264F) from PerkinElmer was used. […] After incubation, the plates were read with an EnVision™ multiplate reader equipped with the ALPHA option using the instrument's own “AlphaScreen standard settings” (e.g. total measurement time: 550 ms, Laser 680 nm excitation time: 180 ms, mirror: D640 as, emission filter: M570w, center wavelength 570 nm, bandwidth 100 nm, transmittance 75%). Data were collected for analysis and quantification of IFNα levels.
Data were analysed using Excel XL fit 4.0 (Microsoft) with XLfit add-in (IDBS; version 4.3.2). Specific IFNα concentrations were determined following extrapolation to standard curves using human IFNα B (2b). […]

Each structure is given as a SMILES string.

The term IC50 denotes the point on the concentration scale where inhibition reaches its midpoint. Consider `CCC(=O)N1CC[C@H](Nc2ncnc3c2CN(c2cnc(OC)c(C(F)(F)F)c2)CC3)C1` [Example 67, 1-{(S)-3-[6-(6-Methoxy-5-trifluoromethyl-pyridin-3-yl)-5,6,7,8-tetrahydro-pyrido[4,3-d]pyrimidin-4-ylamino]-pyrrolidin-1-yl}-propan-1-one], for which the IC50 with TLR9 [1] turned out to be 96 nM; with TLR9 [2], 33 nM.

The record behind these values is US9949979B2, “Use of inhibitors of the activity or function of PI3K” (NOVARTIS AG, priority 2011, dated 2018).
